Experimental data from patent publication US9448170B2 (priority 2003, dated 2016).
Several values for one entry are separate records, joined by “and”; a condition that tells them apart may be missing. Identical values can stand only once.

Tests used:
Selenastrum capricomutum = assay: Delayed fluorescence Curve / VCurve values with green algae photosynthetic sample; format: cell-based; conditions: simazine 25, 50, 100 ppb, dichlorophenol 1, 5, 10 ppm, 0.1 to 50 seconds after excitation; for Curve values variation with an increase in concentration: FIG. 37; for VCurve values variation with an increase in concentration: FIG. 38
Procedure: Meanwhile, if characteristic points are not present in a delayed fluorescence decay curve, the Curve values, determined for the entirety or a predetermined range of the decay curve, may be used as comparison values for carrying out the assay. Here, the Curve value at each measurement point n in a temporal variation of the light amount of delayed fluorescence is determined by: (amount of light emitted from the test measurement solution at measurement point n)−(amount of light emitted from the standard measurement solution at measurement point n).
In such a case, it is effective to use VCurve values, each being standardized by being determined as a ratio of a Curve value, which is a value obtained by determining a difference of the temporal variations of the light amount of delayed fluorescence acquired for the test measurement solution and the standard measurement solution, with respect to a light amount of delayed fluorescence acquired for the test measurement solution or the standard measurement solution (preferably, a light amount of delayed fluorescence acquired for the standard measurement solution), as the comparison values. The evaluation of variations within different time ranges is thereby facilitated. Here, in a temporal variation of the light amount of delayed fluorescence, the VCurve value at each measurement point n is determined as (Curve value at measurement point n)/(amount of light emitted from the standard measurement solution at measurement point n)×100.
FIG. 36 is a diagram of an example of a method of computing the Curve values when no characteristics points exist in a delayed fluorescence decay curve. Here, a delayed fluorescence decay curve of a standard measurement solution using Selenastrum capricomutum, which is a green algae and has been grown by a general method at a light intensity of 50 μmol/m^2/s under a white fluorescence lamp, as the photosynthetic sample is shown. Preparation of the sample is carried out in the same manner as in the case of Spirulina platensis. […] In such a case, assay using the Curve values is effective because assay that makes note of characteristic points cannot be made.
Specifically, graph (a) of FIG. 37 is a graph of the Curve values computed from the measurement results of test measurement solutions exposed to simazine, which is a herbicide, at concentrations of 25, 50, and 100 ppb and the measurement results of the standard measurement solution for a time range of 0.1 seconds to 50 seconds after excitation. Graph (b) is a graph of the Curve values computed from the measurement results of test measurement solutions exposed to dichlorophenol at concentrations of 1, 5, and 10 ppm and the measurement results of the standard measurement solution for a time range of 0.1 seconds to 50 seconds after excitation. […]

Spirulina platensis = format: cell-based

| Molecule | Curve values variation with an increase in concentration (Selenastrum capricomutum) | VCurve values variation with an increase in concentration (Selenastrum capricomutum) | Curve value variation as the concentration becomes higher (Spirulina platensis) | variation of the VCP1 value with respect to concentration (Spirulina platensis) | variation of the VCP2 value with respect to concentration (Spirulina platensis) | variation of the VTP2 value with respect to concentration (Spirulina platensis) | VCP1 value (Spirulina platensis) | VCP1 value after the activated carbon adsorption treatment (Spirulina platensis) | VCP2 value (Spirulina platensis) | VTP2 value (Spirulina platensis) |
| --- | --- | --- | --- | --- | --- | --- | --- | --- | --- | --- |
| dichlorophenol | vary in the negative direction near 0.2 to 10 seconds after excitation | vary in the negative direction widely over the entire range |  |  |  |  |  |  |  |  |
| CCNc1nc(Cl)nc(NCC)n1 [simazine] | vary in the positive direction near 0.1 seconds after excitation | vary in the positive direction near 0.1 to 0.3 seconds after excitation |  |  |  |  |  |  |  |  |
| [Hg+2] [Hg2+, inorganic mercury] |  |  | varies in the positive direction at around 1 to 2 seconds after excitation | does not change much with an increase in the inorganic mercury concentration at low inorganic mercury concentration, at high inorganic mercury concentration, the VCP1 value increases | decreases | increases |  |  |  |  |
| CN(C)C(=O)Nc1ccc(Cl)c(Cl)c1 [DCMU, DCMU (diuron)] |  |  | varies in positive direction at around 1 second after excitation and then varies in the negative direction at around 3 to 5 seconds after excitation | increases | decreases | hardly changes | 116.0 and 125.6 and 120.9 | 96.3 | 88.0 and 84.6 | 100.0 and 101.5 |
| C[n+]1ccc(-c2cc[n+](C)cc2)cc1 [paraquat] |  |  | varies in the negative direction at around 1 to 4 seconds after excitation | decreases slightly | decrease | decrease |  |  |  |  |
| CCNc1nc(Cl)nc(NC(C)C)n1 [atrazine] |  |  | varies in the positive direction at around 1 second after excitation and then varies in the negative direction at around 3 to 4 seconds after excitation | increases | decreases | decreases slightly | 106.4 |  | 90.0 | 100.0 |
